Measurements reported in US8163939B2, “Ascorbic acid derivative or salt thereof, production method thereof, and cosmetic” (Seikwa Kasei Company, Limited, priority 2007, dated 2012).

What was measured:
[1] = Stability Test 2: 2% aqueous solution, pH7, 50° C., 4 weeks (residual rate, odor, coloration); assay type: physicochemical
Description: (§1) Aqueous solutions (2%) of various test samples were adjusted to pH7 with a dilute sodium hydroxide aqueous solution, and charged into 50 mL screw tubes, and the tubes were sealed and stored at room temperature for 4 weeks. Thereafter, HPLC measurement were performed (using liquid chromatography manufactured by Tosoh Corp.) and the residual rate was obtained based on the peak area. The residual rate, odor(odor change) and degree of coloration were evaluated based on the following methods and standards, and the results are shown in Table 41.
The same test as in Test Example 2 was carried out excepting that the sample was stored at 50° C. for 4 weeks instead of storing at room temperature for 4 weeks.

[2] = Stability Test 1: 2% aqueous solution, pH7, room temperature, 4 weeks (residual rate, odor, coloration); assay type: physicochemical
Description: as §1
◯: 80% or more and less than 90%
Δ: 60% or more and less than 80%
X: 20% or more and less than 60%
It was evaluated according to the following criterion by 10 panelists.
Based on the evaluation results, classification was conducted as shown below.
◯: total point of 10 panelists is 25 or more
Δ: total point of 10 panelists is 16 to 24
X: total point of 10 panelists is 15 or less
3: almost no change as compared with that immediately after preparation
2: coloration is observed as compared with that immediately after preparation
1: intense coloration is observed as compared with that immediately after preparation

[3] = Moisturizing test: moisturizing effect by water retention force; assay type: physicochemical
Description: A sample shown later was dried, and the dried sample was spread in an amount of about 0.4 g (this weight is represented by W0) on the bottom of a weighing bottle (diameter: 3.6 cm, height excluding lid: 1.8 cm) so as to give uniform thickness. The sample contained in the weighing bottle was allowed to stand still in a constant humidity and constant temperature vessel (ENVIROS KCL-1000, TOKYO RIKAKIKAI CO, LTD) under environments of 25° C. and 65% RH. The weight was measured periodically, waiting until sufficient moisture absorption to attain equilibrium of weight increase (about 48 hours). Thereafter, the sample was transferred to under environments of 25° C. and 20% RH (in sealed vessel containing a saturated CH3COOK aqueous solution filled in the bottom part). From the weight after 24 hours (this weight is represented by W1), the amount of retained water per 1 g of the dried sample was calculated according to the following formula. (W1−W0)/W0
From the water amount thus calculated, the moisturizing effect was judged based on the following judging criterion, and the results are shown in Table 43.
Three compounds: 2,3-di-O-glyceryl ascorbic acid, 2,3-di-O-phenylglyceryl ascorbic acid, and glycerin, and
Six compounds: ascorbic acid, ascorbic acid glucoside, 2-O-glyceryl ascorbic acid, 3-O-glyceryl ascorbic acid, 3-O-butylglyceryl ascorbic acid and 3-O-octylglyceryl ascorbic acid, which were adjusted to pH7 with a dilute sodium hydroxide aqueous solution and concentrated.
◯: 25 mg or more and less than 40 mg
Δ: 10 mg or more and less than 25 mg

[4] = tested on: Normal human dermal fibroblasts; assay: Collagen production of human fibroblast 2 (100 μM or 500 μM; 2, 4 and 7 days); assay type: cell-based; details: for Collagen production amount in comparison with the control group (% value when the control group is 100%): Table 46, 100 μM or 500 μM (not stated which), average ± standard error, N=4
Description: Normal human dermal fibroblasts were regulated with a 10% (v/v) fetal bovine serum (manufactured by Roshe Diagnostics)-containing D-MEM so as to give a cell density of 2.5×10^4 cells/well, then, pre-incubation for 24 hours was performed on a 96-well plate. After the medium was removed, a sample regulated with a 5% (v/v) fetal bovine serum-containing D-MEM to a concentration of 100 μM was added to each well, then, cultured for 48 hours under 37° C. and 5% CO2. After completion of culturing, the amount of free collagen was measured using Sircol collagen assay kit (manufactured by Biocolor). The measurement was carried out at N=4.
Free collagen was measured under the same conditions as in Test Example 5 excepting that the concentration of each sample was 100 μM or 500 μM and culturing was carried out for 2 days, 4 days and 7 days. The measurement was carried out at N=4, and the average and standard error, in four test examples, of values of the collagen production amount in comparison with the control group (% value when the control group is 100%) are shown in Tables 46 and 47.

[5] = tested on: Normal human dermal fibroblasts; assay: Collagen production of human fibroblast (Sircol collagen assay, 100 μM, 48 hours); assay type: cell-based; details: Homo sapiens, Fibroblast, cultured 48 hours, N=4, read-out: Collagen production promoting effect (collagen production amount, % of control group)
Outline: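 Dermal fibroblasts pre-cultured 24 h, then exposed 48 h to sample at 100 μM in 5% FBS D-MEM at 37 °C, 5% CO2. Free collagen measured by Sircol assay, N=4, expressed as % of untreated control.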

B16 melanoma 4A5 cell = assay: Whitening test: theophylline-induced melanine production in B16 melanoma 4A5 cells; assay type: cell-based, mouse; details: sample at a concentration of 100 μM or less; theophylline-induced melanine production; 3 days culture; N=4
Outline: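 Murine B16 4A5 cells were grown 24 h, then cultured 3 days in D-MEM with 10% FBS, 0.2 mM theophylline and sample. Melanin was dissolved in 2N NaOH at 60° C for 15 min, read at 450 nm against a synthetic-melanin standard and normalised to BCA protein. Suppression % = [1−(A−B)/(C−B)]×100 versus normal and control groups, with samples at ≤100 μM, N=4.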

[6] = storage period 2 weeks, 10 panelists
[7] = storage period 4 weeks, 10 panelists

| Residual rate ([1]; storage period 0) | Residual rate ([1]; storage period 2 weeks) | Residual rate ([1]; storage period 4 weeks) | Residual rate ([2]; storage period 0) | Residual rate ([2]; storage period 2 weeks) | Residual rate ([2]; storage period 4 weeks) | SMILES | Coloration ([1]; storage period 0, 10 panelists) | Odor ([1]; storage period 0, 10 panelists) | Coloration [1, 6] | Odor [1, 6] | Coloration [1, 7] | Odor [1, 7] | Coloration ([2]; storage period 0, 10 panelists) | Odor ([2]; storage period 0, 10 panelists) | Coloration [2, 6] | Odor [2, 6] | Coloration [2, 7] | Odor [2, 7] | Collagen production amount in comparison with the control group (% value when the control group is 100%) ([4]; culturing period 2 days) [%] | Collagen production amount in comparison with the control group (% value when the control group is 100%) ([4]; culturing period 4 days) [%] | also measured |
| --- | --- | --- | --- | --- | --- | --- | --- | --- | --- | --- | --- | --- | --- | --- | --- | --- | --- | --- | --- | --- | --- |
| ◯ (◯: 80% or more and less than 90%) | X (X: 20% or more and less than 60%) | X (X: 20% or more and less than 60%) | ⊚ (⊚: 90% or more) | ◯ (◯: 80% or more and less than 90%) | X (X: 20% or more and less than 60%) | O=C1O[C@H]([C@@H](O)CO)C(O)=C1O [ascorbic acid] | ◯ (◯: total point of 10 panelists is 25 or more) | ◯ (◯: total point of 10 panelists is 25 or more) | Δ (Δ: total point of 10 panelists is 16 to 24) | Δ (Δ: total point of 10 panelists is 16 to 24) | X (X: total point of 10 panelists is 15 or less) | X (X: total point of 10 panelists is 15 or less) | ◯ (◯: total point of 10 panelists is 25 or more) | ◯ (◯: total point of 10 panelists is 25 or more) | Δ (Δ: total point of 10 panelists is 16 to 24) | Δ (Δ: total point of 10 panelists is 16 to 24) | X (X: total point of 10 panelists is 15 or less) | X (X: total point of 10 panelists is 15 or less) | 252 ± 12 | 182 ± 9 | Judgement of moisturizing effect (water amount) [3]: X (X: less than 10 mg); collagen production promoting effect over time (in words) ([4]; 100 μM or 500 μM, culturing 2, 4 and 7 days): lowers over time; Collagen production amount in comparison with the control group (% value when the control group is 100%) ([4]; culturing period 7 days): 139 ± 14%; activity at 100 µM [5]: 100 to 200%; Whitening effect (melanine production suppressing rate) (B16 melanoma 4A5 cell): ± (<20%:±) |
| ⊚ (⊚: 90% or more) | ⊚ (⊚: 90% or more) | ⊚ (⊚: 90% or more) | ⊚ (⊚: 90% or more) | ⊚ (⊚: 90% or more) | ⊚ (⊚: 90% or more) | O=C1O[C@H]([C@@H](O)CO)C(OCC(O)CO)=C1OCC(O)CO (stereo partly shown) [Example 4, 2,3-di-O-glyceryl ascorbic acid] | ◯ (◯: total point of 10 panelists is 25 or more) | ◯ (◯: total point of 10 panelists is 25 or more) | ◯ (◯: total point of 10 panelists is 25 or more) | ◯ (◯: total point of 10 panelists is 25 or more) | ◯ (◯: total point of 10 panelists is 25 or more) | ◯ (◯: total point of 10 panelists is 25 or more) | ◯ (◯: total point of 10 panelists is 25 or more) | ◯ (◯: total point of 10 panelists is 25 or more) | ◯ (◯: total point of 10 panelists is 25 or more) | ◯ (◯: total point of 10 panelists is 25 or more) | ◯ (◯: total point of 10 panelists is 25 or more) | ◯ (◯: total point of 10 panelists is 25 or more) | 161 ± 8 | 171 ± 7 | moisturizing effect (in words) ([3]; conclusion from Table 43, compared with ascorbic acid): excellent moisturizing effect by far than ascorbic acid; Collagen production amount in comparison with the control group (% value when the control group is 100%) ([4]; culturing period 7 days): 209 ± 27%; activity at 100 µM [5]: 100 to 200%; Whitening effect (melanine production suppressing rate) (B16 melanoma 4A5 cell): + (20 to 40%:+) |
